Data from patent US9759730B2, “Method and device for the determination of platelet function under flow conditions” (SIEMENS HEALTHCARE DIAGNOSTICS PRODUCTS GMBH, priority 2006, dated 2017).
Like-named read-outs stand apart in the source and are kept apart here.

Assays:
[1] = system: platelet function in whole blood; conditions: Method 2 ADP cartridge without PGE1; 13 patients on 75 mg clopidogrel daily
Description: The samples were investigated with the aid of different methods to determine platelet function. • 1. according to the invention under flow conditions and use of an ADP/PGE1/calcium PFA-100® test cartridge (see Examples 1 and 2c), cut-off: >81 seconds; • 2. under flow conditions and use of a PFA-100® test cartridge that differed from the test cartridge according to the invention in accordance with Example 1 in that it comprised no PGE1, cut-off: >78 seconds; • 3. with ADP-induced light transmission aggregometry (according to Born) with addition of 2 μM ADP (see Example 2b), cut-off: <40% light transmission at end of test; • 4. with ADP-induced light transmission aggregometry (according to Born) with the addition of 5 μM ADP (see example 2b), cut-off: <40% light transmission at end of test. This method is recommended by Sanofi-Aventis, the manufacturer of the clopidogrel preparation Plavix®, for the determination of the antithrombotic effect of the medicament.
The cut-offs for the individual test procedures were determined by preliminary investigations with whole blood and plasma samples of normal donors.
“+” means an antithrombotic effect could be detected. “−” means no antithrombotic effect could be detected. “0” means that the duplicate determination gave contradictory results, i.e. one value above and one value below the cut-off.

[2] = system: platelet function in whole blood; conditions: Method 1 ADP/PGE1/calcium cartridge; 13 patients on 75 mg clopidogrel daily
[3] = system: platelet aggregation; conditions: Method 3 aggregometry 2 μM ADP; 13 patients on 75 mg clopidogrel daily
[4] = system: platelet aggregation; conditions: Method 4 aggregometry 5 μM ADP; 13 patients on 75 mg clopidogrel daily
[5] = system: platelet aggregation in platelet rich plasma; assay: ADP-induced light transmission aggregometry (according to Born), in vitro treated samples, 2 μM ADP; type: cell-based, human; conditions: MRS 2395 100 μmol/L in citrated blood, 5 min room temperature, PRP, 11 healthy donors
Description: (§1) Venous blood was taken from 11 healthy donors and anticoagulated with sodium citrate (3.2% buffered Na citrate).
(§2) Aliquots of the citrated whole blood sample were treated in vitro with the P2Y(12) antagonist MRS 2395 (Sigma-Aldrich Chemie GmbH, Steinheim, Germany). For this purpose an ethanolic MRS 2395 stock solution (15 mg/mL) was mixed with the whole blood samples so that an end concentration of 100 μmol/L was obtained.
(§3) After addition of the reagents the blood samples were incubated at room temperature for 5 minutes.
In order to check whether the samples treated with MRS 2395 actually show a reduced platelet aggregation, platelet rich (PRP) and platelet poor (PPP) plasma was prepared from aliquots of the untreated and MRS 2395-treated whole blood samples described under Example 2a), and the samples were then treated with 2 μM ADP. The PPP samples were used as blank controls. The photometric measurement of the aggregation reaction was carried out in the automated coagulation apparatus BCT® (Dade Behring Marburg GmbH, Marburg, Germany) under continuous stirring (600 rpm). The platelet aggregation of the samples treated with MRS 2395 was reduced by a mean of 27% compared with the platelet aggregation of the untreated samples.

[6] = system: platelet function in whole blood; assay: Closure time under flow conditions, ADP/PGE1/calcium test cartridge in PFA-100, citrated whole blood treated in vitro; type: cell-based, human; conditions: cut-off 81 seconds, MRS 2395 100 μmol/L; for Number of samples with closure times above cut-off (n = 11): ASA 30 μmol/L, citrated whole blood of 11 healthy donors
Description: For the preparation of a partition member for a test cartridge according to the invention a polyether sulfone filter membrane (Supor® membrane, Pall GmbH, Dreieich, Germany) was cut into strips. 1 μL of a solution comprising 7 μg/μL ADP (adenosine-5′-diphosphate potassium salt.2H2O, Sigma-Aldrich Chemie GmbH, Steinheim, Germany) and 5 ng/μL PGE1 (prostaglandin E1, Sigma-Aldrich Chemie GmbH, Steinheim, Germany) and 367.5 μg/μL CaCl2.2H2O (equivalent to 100 μg/μL Ca^2+ ions) were pipetted punctiform onto the membrane and the membrane was dried. Next a circular opening (aperture) with a diameter of 100 μm was punched out of the middle of the region of the membrane treated with the reagents. The membrane thus prepared was used as partition member in the measurement chamber of a PFA-100® test cartridge (Dade Behring Marburg GmbH, Marburg, Germany).
as §1, §2
Further aliquots of the citrated whole blood samples were treated in vitro with the COX-1 inhibitor acetylsalicylic acid (abbr.: ASA; Sigma-Aldrich Chemie GmbH, Steinheim, Germany). […]
To determine the closure time as a measure of platelet function the whole blood samples described under Example 2a) were investigated with the aid of the ADP/PGE1/calcium test cartridge according to the invention described in Example 1 in a PFA-100® apparatus (Platelet Function Analyzer-100, Dade Behring Marburg GmbH, Marburg, Germany). […] The time required up to the closure of the aperture by formation of a blood clot was determined as closure time. Every sample investigated was determined in duplicate and the mean value of a duplicate determination was used as the measurement value.
Venous blood was taken from healthy donors and anticoagulated with sodium citrate (3.2% buffered Na citrate). […] Samples from 186 donors were determined in duplicate with a Col/Epi PFA-100® test cartridge [see Example 2c)]. Samples from 159 donors were determined in duplicate with an ADP/PGE1/calcium test cartridge according to the invention [see Examples 1 and 2c)].
The reference ranges (normal range) for the Col/Epi closure time and the ADP/PGE1 closure time were established in that the measurement value ranges in which 90% of the measurement values found for the healthy subjects lay were determined (90% central interval of the normal distribution of all measurements). […]

[7] = system: platelet function in whole blood; assay: Closure time under flow conditions, conventional Col/Epi PFA-100 test cartridge, citrated whole blood treated in vitro; type: cell-based, human; conditions: cut-off 158 seconds, MRS 2395 100 μmol/L; for Number of samples with closure times above cut-off (n = 11): ASA 30 μmol/L, citrated whole blood of 11 healthy donors
[8] = system: platelet function in whole blood; assay: Closure time under flow conditions, ADP/PGE1 test cartridge without calcium in PFA-100, PPACK whole blood treated in vitro; type: cell-based, human; conditions: cut-off 90 seconds, MRS 2395 150 μmol/L, ASA 30 μmol/L, MRS 2179 75 μmol/L; for Number of samples with closure times above cut-off (n = 10): ADP/PGE1 cartridge without calcium, PPACK whole blood of 10 healthy donors; for closure time relative to cut-off (FIG. 3, mean values): ADP/PGE1 cartridge, PPACK blood, 10 donors
Description: Venous blood was taken from 10 healthy donors and anticoagulated with 75 μM PPACK.
(§4) Aliquots of the whole blood samples were treated in vitro with the P2Y(12) antagonist MRS 2395 (Sigma-Aldrich Chemie GmbH, Steinheim, Germany). For this purpose an ethanolic MRS 2395 stock solution (15 mg/mL) was mixed with the whole blood samples so that an end concentration of 150 μmol/L was obtained.
Further aliquots of the whole blood samples were treated in vitro with the COX-1 inhibitor acetylsalicylic acid (abbr. ASA; Sigma-Aldrich Chemie GmbH, Steinheim, Germany). For this purpose an aqueous ASA stock solution (1 mg/mL) was mixed with the whole blood samples so that an end concentration of 30 μmol/L was obtained.
as §4, with “Further aliquots” for “Aliquots”, “P2Y(1)” for “P2Y(12)”, “2179” for “2395”, “aqueous” for “ethanolic”, “(1 mg/ml)” for “(15 mg/mL)”, “75” for “150”
as §3
For the determination of the closure time as a measure of the platelet function the whole blood samples described under Example 4a) were investigated with the aid of a ADP/PGE1 test cartridge according to the invention in a PFA-100® apparatus (Platelet Function Analyzer-100, Dade Behring Marburg GmbH, Marburg, Germany). The ADP/PGE1 test cartridge according to the invention used was prepared essentially as described in Example 1 but without the partition member having been treated with CaCl2.2H2O. The test cartridge thus comprised 7 μg ADP and 5 ng PGE1 but no calcium ions.
700 μL of a blood sample was added to the reservoir of the temperature equilibrated test cartridge (+37° C.) and incubated at +37° C. in the apparatus for 3 minutes. Next a partial vacuum of −40 mbar was applied by the apparatus when the blood was sucked through a capillary (diameter 200 μm) from the reservoir and finally through an opening (aperture) of the partition member in the measurement chamber. The time that was required up to the closure of the aperture by formation of a blood clot was determined as closure time. Every sample investigated was determined in duplicate and the mean value of a duplicate determination was used as the measurement value.
Owing to the use of PPACK as anticoagulant the cut-off determined with citrated whole blood in the above-described examples cannot be used. Therefore, the reference range for the ADP/PGE1 closure time from the 10 samples of the healthy donors treated with PPACK was calculated by the determination of the 90% central interval of the normal distribution of the mean values of the duplicate determinations. This gave the following reference ranges for the closure times:
The upper limit of the 90% central interval was defined as cut-off, i.e. as threshold value for a platelet dysfunction.

Compound	Sensitivity (share of 13 patients with detected antithrombotic effect) [1] [%]	Sensitivity (share of 13 patients with detected antithrombotic effect) [2] [%]	number of patients in whom the antithrombotic effect could be detected (of 13) [2]	Sensitivity (share of 13 patients with detected antithrombotic effect) [3] [%]	Sensitivity (share of 13 patients with detected antithrombotic effect) [4] [%]	platelet aggregation reduced compared with untreated samples (mean) [5] [%]	Number of samples with closure times above cut-off (n = 11) [6]	closure time relative to cut-off (FIG. 2, mean values) ([6]; citrated blood, 11 donors)	Number of samples with closure times above cut-off (n = 11) [7]	closure time relative to cut-off (FIG. 2, mean values) ([7]; citrated blood, 11 donors)	Number of samples with closure times above cut-off (n = 10) [8]	closure time relative to cut-off (FIG. 3, mean values) [8]	Number of samples with closure times above cut-off (n = 11) ([6]; listed as acetylsalicylic acid)	Number of samples with closure times above cut-off (n = 10) ([8]; listed as acetylsalicylic acid)
COC(=O)[C@H](c1ccccc1Cl)N1CCc2sccc2C1 [clopidogrel]	46	77	10	69	62									
CNc1nc(Cl)nc2c1ncn2CC(COC(=O)C(C)(C)C)COC(=O)C(C)(C)C [MRS 2395, 2,2-dimethyl-propionic acid 3-(2-chloro-6-methylaminopurin-9-yl)-2-(2,2-dimethyl-propionyloxymethyl)-propyl ester]						27	9	closure times that lie significantly above the upper reference value (cut-off)	4	lie to a greater extent below the upper reference value (cut-off)	9	closure times that lie significantly above the reference value (cut-off)		
CNc1ncnc2c1ncn2[C@H]1C[C@H](OP(=O)(O)O)[C@@H](COP(=O)(O)O)O1.N.N [MRS 2179, 2′-deoxy-N6-methyladenosine-3′,5′-bisphosphate, diammonium salt]											10	closure times that lie significantly above the reference value (cut-off)		
CC(=O)Oc1ccccc1C(=O)O [Acetylsalicylic acid, acetylsalicylic acid]							1		8		0	no prolongation of closure times	one	none
